In the test the target is T1, human TSHR (Homo sapiens, UniProt P16473).
T1 construct: expressed in transfected cells
Kind of test: Homogeneous Time Resolved Fluorescence (HTRF) cAMP assay, TSHR cell line. It is filed as cell-based. As to conditions: for AC50: HTRF cAMP, TSHR cell line, 30 minute incubation, read-out: AC50; for Emax: read-out: Maximum Activity compared to TSH, 100% activity = response of 30 mU/ml TSH, 0% = DMSO control; for Maximum Activity compared to TSH: 100% activity = response of 30 mU/ml TSH, 0% = DMSO control, in %. The source says: Generation of Stable Cell-Lines Expressing TSHR, LHCGR or FSHR.
cDNA for human TSHR was amplified by PCR from hTSHR-pSVL (1) and inserted into the pcDNA3.1(−)/hygromycin vector using restriction sites XhoI and BamHI. cDNA for human LHCGR was amplified by PCR from hLHR-pGS5 (2) and was inserted into the pcDNA3.1(+)/hygromycin vector using restriction sites BamHI and XhoI. The FSHR cDNA in pcDNA3.1 was obtained from the Missouri S&T cDNA Resource Center (www.cDNA.org) and was subcloned into the pcDNA3.1(−)/hygromycin vector. Constructs were confirmed by sequencing (MWG Biotech). HEK-EM 293 cells were transfected with the cDNA of TSHR, LHCGR or FSHR using FuGENE 6 Transfection reagent (Roche Diagnostics) according to the manufacturer's protocol. Two days after transfection cells were passaged and grown in Dulbecco's modified Eagle's Medium (DMEM) supplemented with 10% fetal bovine serum, 100 units/ml penicillin and 10 μg/ml streptomycin (Life Technologies Inc.) and with hygromycin (250 μg/ml) as a selection marker. After 7 to 10 days hygromycin-resistant clones were selected, and after a few days of further growth submitted for a cAMP assay to identify clones that stably express the appropriate receptor. Cell Culture. Cells stably expressing TSHR, LHCGR or FSHR and parental HEK 293 cells were maintained in DMEM medium containing 10% FBS, 100 units/ml Penicillin, 100 μg/ml Streptomycin, at 37° C. in 5% CO2. For the cells lines stably expressing TSHR, LHCGR or FSHR, additional 250 μg/ml Hygromycin was added during the cell culture. The cells were seeded at a density of 3 to 4 million cells in a T175 flask containing 35 ml of media and were allowed to grow for 3 days to reach 80-90% confluence. A flask of HEK 293 cells at this density generally yielded 30 million cells total. Homogeneous Time Resolved Fluorescence (HTRF) cAMP Assay. Compounds were assayed using a HTRF cAMP detection kit (Cisbio, Bedford, Mass.) on both TSHR cell line and parental cell line. Briefly, 750 cells were plated in 2.5 μl/well of complete media (DMEM containing 10% FCS) in 1536 well solid bottom white plates and 20 nl/well compound in DMSO solution or controls was added. Following 30 minute incubation at room temperature, 2.5 μl/well of labeled d2 cAMP and 2.5 μl/well of anti-cAMP antibody (both diluted 1:20 in lysis buffer) were added to each well using a flying reagent dispenser (Aurora Discovery, San Diego). Plates were measured using the Envision plate reader (PerkinElmer, Boston, Mass.) with excitation at 330 nm and emissions of 615 nm and 660 nm. Compound Preparation. […] Data Analysis. […] The EC50 values of compounds were calculated from the concentration-response curves by nonlinear regression analysis using Prism software (GraphPad Software, San Diego, Calif.). Confirmatory cAMP Assay and Test for Selectivity Towards TSHR 50,000 cells/well were plated in complete media (DMEM containing 10% FCS) in 96 well plates. […] Following aspiration of the medium after incubation with compounds, cells were lysed using lysis buffer of the cAMP-Screen Direct™ System (Applied Biosystems, Cat # CSD200). The cAMP content of the cell lysate was determined using the manufacturer's protocol. […] Below is a List of Compounds that were Assayed via the Homogeneous Time Resolved Fluorescence (HTRF) cAMP Assay.

The text below walks through data of US9458141B2, “Low molecular weight thyroid stimulating hormone receptor (TSHR) agonists” (The United States of America, as represented by the …, priority 2008, dated 2016).

T1 sequence (P16473 21-764): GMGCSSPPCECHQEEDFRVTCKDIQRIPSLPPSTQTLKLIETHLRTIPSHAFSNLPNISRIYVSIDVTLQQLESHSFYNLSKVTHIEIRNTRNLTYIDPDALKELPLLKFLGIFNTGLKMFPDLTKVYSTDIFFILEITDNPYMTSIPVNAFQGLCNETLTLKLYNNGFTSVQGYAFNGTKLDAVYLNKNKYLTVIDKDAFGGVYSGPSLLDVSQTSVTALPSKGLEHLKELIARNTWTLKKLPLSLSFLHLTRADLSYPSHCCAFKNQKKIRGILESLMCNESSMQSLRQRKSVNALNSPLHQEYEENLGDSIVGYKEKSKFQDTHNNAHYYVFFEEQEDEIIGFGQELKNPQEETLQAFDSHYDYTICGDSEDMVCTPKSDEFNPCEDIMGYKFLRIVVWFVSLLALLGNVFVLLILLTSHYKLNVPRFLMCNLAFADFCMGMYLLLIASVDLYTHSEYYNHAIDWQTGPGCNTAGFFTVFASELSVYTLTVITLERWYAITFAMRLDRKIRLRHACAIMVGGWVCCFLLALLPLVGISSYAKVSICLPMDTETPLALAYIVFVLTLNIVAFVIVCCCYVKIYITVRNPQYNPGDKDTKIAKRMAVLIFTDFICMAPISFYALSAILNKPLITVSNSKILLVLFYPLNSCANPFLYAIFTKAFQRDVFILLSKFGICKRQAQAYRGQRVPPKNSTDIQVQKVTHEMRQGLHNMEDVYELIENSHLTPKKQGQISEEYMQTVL

As a reminder, the AC50 is the midpoint of the concentration-response curve, whichever way the signal moves. For `COc1ccc(C2Nc3ccccc3C(=O)N2Cc2ccc(-c3ccccc3)cc2)cc1COc1ccc(NC(C)=O)cc1` (stereo not shown) [Structure 74], the half-maximal activity concentration (AC50) is 2.82 µM and the Emax worked out at 36%.

Regarding `COc1ccc(CN(Cc2ccccc2)C(=O)c2cccc(C#N)c2)cc1COc1ccc(NC(C)=O)cc1` [Structure 75], the “Maximum Activity compared to TSH” value is 70.09 and the AC50 is 20 µM.

`COc1ccc(C2Cc3ccccc3C(=O)N2Cc2ccccc2)cc1COc1ccc(NC(C)=O)cc1` (stereo not shown) [Structure 76]: the “Maximum Activity compared to TSH” value was 64.77 and the half-maximal activity concentration (AC50) worked out at 6.31 µM.

For the compound `COc1ccc(C2Nc3ccccc3C(=O)N2Cc2ccc(Cl)cc2)cc1COc1ccc(NC(C)=O)cc1` (stereo not shown) [Structure 77], the “Maximum Activity compared to TSH” value is 68.63 and the AC50 was 3.16 µM.

For `COc1ccc(C2Oc3ccccc3C(=O)N2Cc2ccccc2)cc1COc1ccc(NC(C)=O)cc1` (stereo not shown) [Structure 78], the “Maximum Activity compared to TSH” value was found to be 66.16 and the AC50 was 8.91 µM.

`COc1ccc(C2Nc3ccccc3C(=O)N2Cc2cccc(-c3ccccc3)c2)cc1COc1ccc(NC(C)=O)cc1` (stereo not shown) [Structure 79]: the “Maximum Activity compared to TSH” value was 61.52 and the AC50 came out at 1.78 µM.

On to `COc1ccc(-c2nc3ccc(NC(=O)CO)cc3c(=O)n2Cc2cccc(Cl)c2)cc1COc1ccc(NC(C)=O)cc1` [Structure 80], for which the AC50 came to 22.4 µM and the Emax was 40%.

Take `COc1ccc(CN(Cc2ccccc2)C(=O)C2CC2)cc1COc1ccc(NC(C)=O)cc1` [Structure 81]: the “Maximum Activity compared to TSH” value was found to be 76.98 and the AC50 was 15.8 µM.

Take `COc1ccc(-c2nc3ccccc3c(=O)n2Cc2ccccc2)cc1CNc1ccc(CC(C)=O)cc1` [Structure 82]: the AC50 was determined as 25.1 µM and the Emax worked out at 59%.

Turning to `COc1ccc(C2Oc3ccc(NC(C)=O)cc3C(=O)N2Cc2cccc(Cl)c2)cc1COc1ccc(NC(C)=O)cc1` (stereo not shown) [Structure 83], the AC50 came to 7.08 µM and the Emax is 79%.

In the case of `COc1ccc(C2N(Cc3ccccc3)C(=O)c3ccccc3N2C)cc1COc1ccc(NC(C)=O)cc1` (stereo not shown) [Structure 84], the “Maximum Activity compared to TSH” value came out at 47.53 and the AC50 came out at 7.94 µM.

In the case of `COc1ccc([C@H]2[C@H](c3ccccc3)C(=O)N2Cc2ccccc2)cc1COc1ccc(NC(C)=O)cc1` [Structure 85], the “Maximum Activity compared to TSH” value worked out at 54.95.

Regarding `COc1ccc(C2Nc3ccccc3C(=O)N2Cc2cccc3ccccc23)cc1COc1ccc(NC(C)=O)cc1` (stereo not shown) [Structure 86], the “Maximum Activity compared to TSH” value is recorded as 51.11 and the AC50 was 6.31 µM.

In the case of `COc1ccc(OCc2cc(C3Nc4ccccc4C(=O)N3Cc3ccccc3)ccc2OC)cc1` (stereo not shown) [Structure 87], the AC50 is 3.98 µM and the Emax is 38%.

In the case of `COc1ccc(C2Nc3ccccc3C(=O)N2Cc2ccccc2C(F)(F)F)cc1COc1ccc(NC(C)=O)cc1` (stereo not shown) [Structure 88], the concentration at half-maximal activity (AC50) turned out to be 5.62 µM and the Emax was 30.5%.

Turning to `COc1ccc(C2Nc3ccccc3C(=O)N2Cc2ccco2)cc1COc1ccc(NC(C)=O)cc1` (stereo not shown) [Structure 89], the “Maximum Activity compared to TSH” value is reported as 129.12 and the AC50 is 25.1 µM.

For `COc1ccc([C@H]2[C@H](c3ccccc3)C(=O)N2Cc2ccccc2)cc1COc1ccc(NC(C)=O)cc1` [Structure 90], the “Maximum Activity compared to TSH” value worked out at 110.89.

As for `COc1ccc(C2Nc3ccccc3C(=O)N2Cc2ccco2)cc1COc1ccc(NC(C)=O)cc1` (stereo not shown) [Structure 91], the “Maximum Activity compared to TSH” value was determined as 88.07 and the AC50 turned out to be 15.8 µM.

In the case of `COc1ccc(C(=O)N(Cc2ccccc2)Cc2cccs2)c(O)c1` [Structure 92], the “Maximum Activity compared to TSH” value was determined as 133.48 and the AC50 was 31.6 µM.

`COc1ccc(C(=O)N(Cc2ccccc2)Cc2cccs2)c(O)c1` [Structure 93]: the “Maximum Activity compared to TSH” value stood at 111.66 and the concentration at half-maximal activity (AC50) came out at 28.2 µM.

As for `COc1ccc(C2Nc3ccccc3C(=O)N2Cc2ccco2)cc1COc1ccc(NC(C)=O)cc1` (stereo not shown) [Structure 94], the “Maximum Activity compared to TSH” value was found to be 160.25 and the AC50 came to 25.1 µM.

On to `COc1ccc(-c2nc3ccccc3c(=O)n2Cc2ccccc2)cc1COc1ccc(NC(C)=O)cc1` [Structure 95], for which the “Maximum Activity compared to TSH” value is recorded as 138.18 and the AC50 was 12.6 µM.

With `COc1ccc(CN(Cc2ccccc2)C(=O)c2ccco2)cc1COc1ccc(NC(C)=O)cc1` [Structure 96], the AC50 worked out at 14.1 µM and the Emax was 125%.

For `COc1ccc(-c2nc3ccccc3c(=O)n2Cc2ccccc2)cc1COc1ccc(NC(C)=O)cc1` [Structure 97], the “Maximum Activity compared to TSH” value is listed as 132.18 and the AC50 came to 15.8 µM.

Regarding `COc1ccc(CN(Cc2ccccc2)C(=O)c2ccccc2)cc1COc1ccc(NC(C)=O)cc1` [Structure 98], the “Maximum Activity compared to TSH” value worked out at 140.53 and the AC50 is 14.1 µM.

Regarding `COc1ccc(C2Nc3ccccc3C(=O)N2Cc2cccnc2)cc1COc1ccc(NC(C)=O)cc1` (stereo not shown) [Structure 99], the AC50 amounted to 35.5 µM and the Emax is 104%.

On to `COc1ccc(CN(Cc2ccccc2)C(=O)c2ccccc2N)cc1COc1ccc(NC(C)=O)cc1` [Structure 100], for which the “Maximum Activity compared to TSH” value came to 190.35 and the AC50 worked out at 35.5 µM.

For `COc1ccc(C(=O)N(Cc2ccco2)Cc2cccs2)c(O)c1` [Structure 101], the “Maximum Activity compared to TSH” value came to 128.51 and the AC50 came to 28.2 µM.

For the compound `COc1ccc(C(=O)N(Cc2ccccc2)Cc2ccco2)c(O)c1` [Structure 102], the AC50 came to 15.8 µM and the Emax amounted to 88.7%.

For `COc1ccc(C(=O)N(Cc2cccs2)Cc2cccs2)c(O)c1` [Structure 103], the “Maximum Activity compared to TSH” value is 106.72 and the AC50 was determined as 15.8 µM.

In the case of `COc1ccc(CN(Cc2ccccc2)C(=O)c2ccc(O)cc2)cc1COc1ccc(NC(C)=O)cc1` [Structure 104], the “Maximum Activity compared to TSH” value is given as 122.31 and the AC50 amounted to 39.8 µM.

Take `COc1ccc(C2Nc3ccc(NC(C)=O)cc3C(=O)N2Cc2ccccc2)cc1COc1ccc(NC(C)=O)cc1` (stereo not shown) [Structure 105]: the AC50 was determined as 17.8 µM and the Emax is 126%.

Consider `COc1ccc(C2Nc3cccc(OC)c3C(=O)N2Cc2ccccc2)cc1COc1ccc(NC(C)=O)cc1` (stereo not shown) [Structure 106], for which the AC50 was found to be 17.8 µM and the Emax was 45.4%.

Take `COc1ccc(C2Nc3ccccc3C(=O)N2Cc2ccc(CNC(=O)CO)cc2)cc1COc1ccc(NC(C)=O)cc1` (stereo not shown) [Structure 107]: the concentration at half-maximal activity (AC50) is 31.6 µM and the Emax is 63.7%.

`COc1ccc(C(=O)N(Cc2cccs2)Cc2cccs2)c(O)c1` [Structure 108]: the “Maximum Activity compared to TSH” value is 63.12 and the AC50 amounted to 15.8 µM.

On to `COc1ccc(CNc2ccccc2C(=O)NCc2ccccc2)cc1COc1ccc(NC(C)=O)cc1` [Structure 109], for which the AC50 was 17.8 µM and the Emax was 47.5%.

Consider `COc1ccc(-c2nc3ccc(NC(C)=O)cc3c(=O)n2Cc2cccc(Cl)c2)cc1COc1ccc(NC(C)=O)cc1` [Structure 110], for which the “Maximum Activity compared to TSH” value is recorded as 48.00 and the concentration at half-maximal activity (AC50) turned out to be 22.4 µM.

Turning to `COc1ccc(C2Nc3ccccc3C(=O)N2Cc2cccnc2)cc1COc1ccc(NC(C)=O)cc1` (stereo not shown) [Structure 111], the “Maximum Activity compared to TSH” value was determined as 98.46 and the AC50 amounted to 35.5 µM.

Consider `COc1ccc(C(=O)N(Cc2ccco2)Cc2cccs2)c(O)c1` [Structure 112], for which the “Maximum Activity compared to TSH” value was determined as 60.92 and the AC50 is 15.8 µM.
